Data on 18 compounds can be found in patent US20160243112A1, “TREATMENTS FOR ALZHEIMER'S RELATED DISEASES AND DISORDERS” (Alkermes, Inc., priority 2015, published 2016).

Molecules are shown by their SMILES. Structures can show the parent of a compound that is named as a salt. Bounds are passed on as bounds.

The target in data set [1] is T1, cloned human NMDA receptor (NR1/NR2A) channel (Homo sapiens, UniProt Q05586+Q12879).
T1 construct: expressed in transfected cells; host or cells: HEK293
The data set can be described thus: FLIPR Ca++ flux assay in NR1/NR2A expressing HEK cells. It is filed as cell-based. Here is the method:
(§1) The NMDA receptor is an ionotropic glutamate receptor that forms a cation-selective channel. Test articles were assessed for their ability to inhibit calcium flux produced by a positive control agonist (100 μM Glutamic acid+20 μM Glycine) in cloned human NMDA receptor (NR1/NR2A) channel (encoded by the GRIN1 and GRIN2A genes) expressing HEK293 cells. A Fluo-8 calcium kit and a Fluorescence Imaging Plate Reader ([…]™) instrument was used to measure calcium flux. The potential antagonist effect of each test article was measured at eight concentrations (0.1, 0.3, 1, 3, 10, 30, 100, 300 μM; n=4 per concentration) after activating NR1/NR2A channel with the positive control agonist (100 μM Glutamic acid+20 μM Glycine).
as §1

The test system of data set [2] is olfactory bulbectomized (OBX) rat. Kind of data set: Efficacy study in an animal model of agitation: open field locomotor activity in the OBX rat. It is filed as in vivo. The following applies: OBX rats; single s.c. injection 30 min before test; Compound-1 10 and 30 mg/kg. Here is the method:
The objective of this study is to assess the efficacy of Compound-1 in an animal model of agitation: the olfactory bulbectomized (OBX) rat.
(§2) The study design included 4 treatment groups. Rats were assigned to their respective treatments by stratifying into groups based on body weight and arena. The experiment was carried out on a single day.
Forty-four male Sprague Dawley rats (Charles River, Raleigh, N.C.) were used for this study. Rats were single housed and weighed 200-225 g upon receipt. All rats were maintained on a 12 h light-12 h dark cycle with free access to food and water. Husbandry was conducted in accordance with the 2011 Guide for the Care and Use of Laboratory Animals (NRC, 2011).
(§3) Subcutaneous doses were administered via flank injection at a dose volume of 1 mL/kg 30 minutes before behavioral testing. Dose volumes were adjusted for the weight of the animal on the day of the experiment.
(§4) OBX rats and their weight-matched non-surgery controls were allowed to acclimate/recover from the surgical procedure for at least 4 weeks to permit the onset of the behavioral deficit. Rats were handled periodically throughout this acclimation period to prevent excessive aggression. […]
The following parameters were assayed: • 1. […] The behavior was recorded and analyzed by an automated tracking system (Med Associates). […]

Data set [3] has the same test system. Kind of data set: Efficacy study in an animal model of anxiety: marble burying in the OBX rat. It is filed as in vivo. Particulars: OBX rats; 10 mg/kg single s.c. injection 30 min before 20 min test. Here is the method:
Rodents will also bury non-aversive unconditioned objects, such as food pellets and glass marbles; an effect reversible by compounds that have anxiolytic efficacy.
as §2
Thirty-two male Sprague Dawley rats (Charles River, Raleigh, N.C.) were used for this study. Rats were single housed and weighed 200-225 g upon receipt. All rats were maintained on a 12 h light-12 h dark cycle with free access to food and water. Husbandry was conducted in accordance with the 2011 Guide for the Care and Use of Laboratory Animals (NRC, 2011).
as §3, §4
Marbles were considered “buried” if more than ⅔ surface was not visible. The number of uncovered/buried marbles was recorded and photographed by experimenter blind to drug treatment. […]

For data set [4], the target named is T2, PCP binding site of NMDA receptors (Rattus norvegicus, UniProt P35439).
T2 construct: NMDA receptors in rat cerebral cortex cells; tissue CEREP #0124; host or cells: rat cerebral cortex
Kind of data set: CEREP NMDA PCP site binding study (PCP antagonist radioligand assay #0124). The procedure: The specific ligand binding to the receptors is defined as the difference between the total binding and the nonspecific binding determined in the presence of an excess of unlabelled ligand. […] The inhibition constants (Ki) were calculated using the Cheng Prusoff equation (Ki=IC50/(1+(L/KD)), where L=concentration of radioligand in the assay, and KD=affinity of the radioligand for the receptor).

Another data set concerns Sprague Dawley rat. Kind of data set: Open field test of locomotor activity in non-olfactory bulbectomized Sprague Dawley rats. It is filed as in vivo. The following applies: 10 mg/kg s.c. 30 min before 30 min test, vs vehicle.
Text: Significant changes in locomotor activity may indicate an abnormal response to a drug (e.g., psychomotor retardation, agitation or behavioral sensitization). The Open field test is a commonly used qualitative and quantitative measure of general locomotor activity and willingness to explore in rodents. The objective of this study is to evaluate the effect of Compound-1 on locomotor activity in the (non-olfactory bulbectomized) rat. This study serves as a control experiment for the agitation and anxiety assays described above.
The study design included 2 treatment groups. Rats were randomized into their respective treatments. The experiment was carried out on a single day.
Sixteen male Sprague Dawley rats (Charles River, Raleigh, N.C.) were used for this study. Rats were single housed and weighed 200-225 g upon receipt. All rats were maintained on a 12 h light-12 h dark cycle with free access to food and water. Husbandry was conducted in accordance with the 2011 Guide for the Care and Use of Laboratory Animals (NRC, 2011).
as §3
Rats were allowed to acclimate to the facility for 1 week before behavioral testing. Rats were placed in the Open field arena 30 minutes post-drug administration for a 30 min test. This experiment was run under dim light and low white noise conditions.
The following parameters were assayed:
1. Distance travelled (cm)
3. Stereotypy counts (arbitrary unit)
4. Number of rears (exploratory behavior)
5. Average velocity (cm/s)
The behavior was recorded and analyzed by an automated tracking system (Med Associates). GraphPad Prism 6.0 was used to prepare graphs and to perform data analysis including one-way ANOVA or t-test analysis of locomotor activity where appropriate.

A short description of data set [5]: Repeat dose general toxicology studies of up to six weeks. It is filed as in vivo. The following applies: rats, daily oral gavage up to six weeks. From the text:
NMDA antagonists are associated with a wide range of serious toxicities, including neurodegeneration. However, the therapeutic index of an NMDA antagonist can vary widely and is correlated with a property referred to as trapping at the drug binding site within the NMDA receptor channel. Higher trapping agents show increased toxicity relative to lower trapping agents and a reduced therapeutic index. Compounds of Formula I, or a Compound of Table 1, preferably Compound-1, have been evaluated in repeat dose general toxicology studies of up to six weeks in duration in both rats and dogs. In both species, Compounds of Formula I, or a Compound of Table 1, preferably Compound-1, were given daily by oral gavage at doses producing plasma concentrations of the drug that would exceed the expected human therapeutic exposures by at least 30-fold. […] This observation is consistent with the concept of the low trapping nature of Compounds of Formula I, or a Compound of Table 1, preferably Compound-1, and an improved therapeutic index over other NMDA antagonists characterized as high trapping agents.

T1 sequence (Q12879 23-1464, other chains not shown): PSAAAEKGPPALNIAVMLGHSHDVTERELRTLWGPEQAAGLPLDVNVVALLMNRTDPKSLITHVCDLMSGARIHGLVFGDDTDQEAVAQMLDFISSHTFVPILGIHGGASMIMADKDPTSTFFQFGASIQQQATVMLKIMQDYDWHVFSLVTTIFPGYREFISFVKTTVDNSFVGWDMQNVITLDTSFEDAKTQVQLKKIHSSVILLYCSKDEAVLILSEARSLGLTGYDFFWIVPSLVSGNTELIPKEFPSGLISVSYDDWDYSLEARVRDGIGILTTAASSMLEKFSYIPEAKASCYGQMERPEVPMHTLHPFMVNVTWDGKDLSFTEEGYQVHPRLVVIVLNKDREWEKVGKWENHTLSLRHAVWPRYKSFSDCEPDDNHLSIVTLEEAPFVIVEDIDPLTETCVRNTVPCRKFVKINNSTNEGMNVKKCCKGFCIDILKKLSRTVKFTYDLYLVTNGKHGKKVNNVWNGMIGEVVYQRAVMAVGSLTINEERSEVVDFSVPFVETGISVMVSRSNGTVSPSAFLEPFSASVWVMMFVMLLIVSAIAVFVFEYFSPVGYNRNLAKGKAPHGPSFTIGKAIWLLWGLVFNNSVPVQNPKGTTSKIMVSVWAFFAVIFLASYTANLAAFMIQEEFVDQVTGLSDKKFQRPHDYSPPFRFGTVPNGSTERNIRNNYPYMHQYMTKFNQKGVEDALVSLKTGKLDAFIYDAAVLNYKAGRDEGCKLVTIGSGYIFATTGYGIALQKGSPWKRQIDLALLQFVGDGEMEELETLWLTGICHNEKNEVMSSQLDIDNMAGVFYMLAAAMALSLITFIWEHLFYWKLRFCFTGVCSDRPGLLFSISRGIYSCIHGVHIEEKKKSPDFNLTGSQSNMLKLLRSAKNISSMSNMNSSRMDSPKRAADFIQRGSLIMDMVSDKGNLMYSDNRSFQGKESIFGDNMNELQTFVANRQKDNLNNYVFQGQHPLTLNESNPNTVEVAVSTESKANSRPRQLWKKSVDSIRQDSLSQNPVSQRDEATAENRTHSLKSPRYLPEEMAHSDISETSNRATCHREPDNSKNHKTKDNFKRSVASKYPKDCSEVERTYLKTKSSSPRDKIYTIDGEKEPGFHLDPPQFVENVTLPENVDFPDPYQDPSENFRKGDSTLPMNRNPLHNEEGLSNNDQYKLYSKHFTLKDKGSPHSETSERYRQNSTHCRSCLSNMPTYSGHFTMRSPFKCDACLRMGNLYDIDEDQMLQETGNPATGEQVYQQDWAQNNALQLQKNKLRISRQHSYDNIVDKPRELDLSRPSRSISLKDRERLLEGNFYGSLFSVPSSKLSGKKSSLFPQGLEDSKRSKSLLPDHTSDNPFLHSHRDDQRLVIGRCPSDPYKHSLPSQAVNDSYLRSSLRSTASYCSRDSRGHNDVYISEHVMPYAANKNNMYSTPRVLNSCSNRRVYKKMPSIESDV

For the compound `O=C(O)c1ccc2c(c1)[C@]13CCCC[C@@H]1[C@H](C2)N(CCc1ccccc1)CC3`, the IC50 in data set [1] was > 500 µM. The same measure, in the same setting: then `c1ccc(C2(N3CCCCC3)CCCCC2)cc1` [Phencyclidine (PCP), Phencyclidine, reference compound], with 7.5 µM; and `CN1CC[C@@]23CCCCC2[C@@H]1Cc1ccc(-c2nnc(N)s2)cc13` (stereo partly shown), with 35.5 µM; and `Cc1nnc(-c2ccc3c(c2)[C@]24CCCCC2[C@H](C3)N(CCc2ccccc2)CC4)s1` (stereo partly shown), with > 500 µM.

Regarding `COc1ccc2c(c1)[C@]13CCCC[C@@H]1[C@H](C2)N(C)CC3` [Dextromethorphan (DMX), Dextromethorphan, reference compound], half-maximal inhibition in data set [1] (IC50) was put at 107 µM. In addition, the “locomotor response (distance travelled) in open field” value in data set [2] is “blocks the locomotor response”. Moreover, in data set [3], the “burying response (marbles buried)” value was “blocked this burying response”. On to `CN1CC[C@@]23CCCCC2[C@@H]1Cc1ccc(-c2nnc(CO)s2)cc13` (stereo partly shown), for which the IC50 in data set [1] worked out at 47.5 µM. Same read-out and setting: then `CN1CC[C@@]23CCCCC2[C@@H]1Cc1ccc(-c2nnc(C(F)(F)F)s2)cc13` (stereo partly shown), with > 500 µM; and `CN1CC[C@@]23CCCCC2[C@@H]1Cc1ccc(-c2nnc(C(C)(C)C)s2)cc13` (stereo partly shown), with > 500 µM; and `CNC1(c2ccccc2Cl)CCCCC1=O` (stereo not shown) [Ketamine, reference compound], with 57.2 µM. Take `CN1CC[C@@]23CCCCC2[C@@H]1Cc1ccc(-c2nnc(C(C)(C)O)s2)cc13` (stereo partly shown): in data set [1], the IC50 is > 500 µM. Consider `Cc1nnc(-c2ccc3c(c2)[C@]24CCCC[C@@H]2[C@H](C3)N(C)CC4)s1` [Compound-3, 2-methyl-5-((4bS,9S)-11-methyl-6,7,8,8a,9,10-hexahydro-5H-9,4b-(epiminoethano)phenanthren-3-yl)-1,3,4-thiadiazole hydrochloride], for which, in data set [1], inhibition was half-maximal at 94 µM (IC50). The same measure, in the same setting: then `CN1CC[C@@]23CCCC[C@@H]2[C@@H]1Cc1ccc(Br)cc13`, with 49 µM; and `CN1CC[C@@]23CCCCC2[C@@H]1Cc1ccc(-c2ccsn2)cc13` (stereo partly shown), with 15 µM; and `Cc1nnc(-c2ccc3c(c2)[C@]24CCCC[C@@H]2[C@H](C3)N(C)CC4)o1`, with > 500 µM.

Take `CN1CC[C@@]23CCCCC2[C@@H]1Cc1ccc(-c2cscn2)cc13` (stereo partly shown): in data set [1], the IC50 came to 50 µM. Compound `CN1CC[C@@]23CCCC[C@@H]2[C@@H]1Cc1ccc(C(N)=O)cc13` [Compound-1] gave an IC50 in data set [1] of 225 µM. Moreover, the Ki in data set [4] was determined as 7.4 µM. The “mode of binding to the PCP binding site” value in data set [4] (rat cerebral cortex) was “binds competitively”. Besides, the “locomotor response (distance travelled) in open field” value in data set [2] is listed as “blocked this hyperlocomotor response”. The “burying response (marbles buried)” value in data set [3] is “blocked this burying response”. Further, in the data set with Sprague Dawley rat, the “effect on average velocity” value is “no effect”, the “effect on jumping behavior” value is listed as “no effect”, the “effect on locomotor activity (distance travelled)” value is on record as “no effect” and the effect on rearing result is given as “no effect”. Also, the effect on stereotypy result in the data set on Sprague Dawley rat is listed as “no effect”. In addition, the clinical changes entry in data set [5] (highest doses evaluated) is “increased bone fractures and abnormalities in incisors”. Moreover, the neurodegeneration entry in data set [5] (when clinical signs were present) is “no evidence of neurodegeneration”. `CN1CC[C@@]23CCCC[C@@H]2[C@@H]1Cc1ccc(-c2nncs2)cc13` [Compound-2, 2-((4bS,9S)-11-methyl-6,7,8,8a,9,10-hexahydro-5H-9,4b-(epiminoethano)phenanthren-3-yl)-1,3,4-thiadiazole hydrochloride] came in with an IC50 in data set [1] of 225 µM. Turning to `CN1CC[C@@]23CCCCC2[C@@H]1Cc1ccc(-c2nccs2)cc13` (stereo partly shown), half-maximal inhibition in data set [1] (IC50) was put at 33 µM.
